Key:
[1] = target: T1, niacinamide phosphoribosyltransferase (NAPRT, EC 2.4.2.12) (Homo sapiens, UniProt P43490); assay: Niacinamide phosphoribosyltransferase (NAPRT) assay, protamine-treated cytoplasmic fraction of K-562 cells; assay type: biochemical; conditions: compound 10 μM
T1 construct: protamine-treated cytoplasmic fraction of K-562 cells as the enzyme source; endogenous in cells; host or cells: K-562 (ATCC CCL 243), freeze-thaw lysate, 23,000 x g supernatant treated with protamine sulfate
Method: The effect of the compounds on the enzyme niacinamide phosphoribosyltransferase (NAPRT, EC 2.4.2.12) was investigated using for example protamine-treated cytoplasmic fraction of K-562 cells as the enzyme source according to the NAPRT assay described in the experimental part below. The investigated compounds were used in concentrations of 10 μM, except for K22387 and K22133 where the concentration was 1 μM.
The assay is based on the amount of radioactive incorporation from ^14C-labelled niacinamide into niacinamide mononucleotide (NAM). NAM is subsequently separated from niacinamide (NA) by thin-layer chromatography and its quantity is determined by autoradiography.
Niacinamide Phosphoribosyltransferase (NAPRT) Assay
The human cell line K-562 (chronic myelogenous leukaemia) is obtained from the American Type Culture Collection (ATCC CCL 243), Rockville, Md., USA. The K-562 cells are cultured in RPMI (Sigma, Deisenhofen, Germany, Product No.: R6504) containing 10% foetal calf serum (PAN Systems GmbH, Aidenbach, Germany), 2.2 g/l NaHCO3 (Merck, Darmstadt, Germany), 50,000 IU/l penicillin and 50 mg/l streptomycin (Sigma).
The K-562 cells are grown in RPMI supplemented with 10% FCS at 37° C. and 100% humidity in a 5% CO2 atmosphere up to a density of 2×10^6 cells per ml. Under these conditions, the cells grow logarithmically with a generation time of 24 hours. The cells are harvested by aspiration and centrifugation (250×g, 10 min, RT). Thereafter, the cells are washed at least 3 times by repeated centrifugation (250×g, 10 min, RT) and resuspension in CMF-PBS. After counting the cell suspension in a haematocytometer, the cells are spun into a tight pellet (390×g, […], RT) and the supernatant is carefully drawn off with a Pasteur pipette. The cells are then vortexed into suspension in sufficient lysis buffer to give a final concentration of 3×10^7 cells per ml. The suspension is frozen at −80° C. for at least one day and thawed slowly at room temperature to break up the cells. The breakage is usually greater than 95%, as determined by trypan blue exclusion. Following centrifugation at 23,000×g for 90 min at 0° C., the clarified supernatant is recovered on ice and 70 μl of 1% protamine sulfate is added per ml of supernatant. After 15 min on ice, the cloudy suspension is centrifuged a further 30 min at 23,000×g and 0° C. The final supernatant is stored in small aliquots at […] This supernatant contains about 950 to 1440 μg protein per ml. 120 to 140 μg protein per sample is used in the NAPRT assay (total assay volume: 0.5 ml).
The niacinamide phosphoribosyltransferase activity is determined in a reaction solution of 0.5 ml consisting of 5 mM MgCl2, 2 mM ATP, 0.5 mM PRPP, and [^14C]niacinamide (10^−5 M to 10^−7 M) in 50 mM Tris buffer pH 8.8 (final concentrations in the assay). The reaction is started by adding 100 to 120 μl cell extract. After incubation for 1 hour at 37° C., the enzyme reaction is stopped by adding cold niacinamide (50 μl of a 100 mM niacinamide solution per 0.5 ml reaction mixture) and by heating on a heating block (2 min, 105° C.). The precipitate is removed by centrifugation (2,500×g, 10 min, 4° C.) and the supernatant is collected into a […] polypropylene vial with screw cap and stored at −20° C. until further analysis. A 10 μl aliquot is taken from the supernatant to determine the total amount of radioactivity.
The ^14C-labelled components of the reaction mixture are separated and identified using thin-layer chromatography (TLC). 5 to 7.5 μl of each sample is transferred to a cellulose TLC foil using an automated sample applicator. The cellulose foil is developed using 1 M NH4 acetate:ethanol (3:7) as solvent. The chromatogram is run with added non-radioactive standards of NAD, NADP, NAM and niacinamide, and the spots were identified by UV absorption (RF values see Table 7). For autoradiography, the chromatogram is exposed to an imaging plate BAS-IIIs in a hypercassette for at least two days. […]

HepG2 cells = assay: Cell growth under high-density conditions (SRB assay), delayed cell death (DCD); assay type: cell-based, human; conditions: Homo sapiens, high density HepG2 cultures
Hep G2 cells = assay: Nicotinamide Reversibility Assay / cell growth inhibition of Hep G2 cells (SRB, six days); assay type: cell-based, human; conditions: Homo sapiens, HepG2, 144 h; Hep G2; six days of compound incubation; SRB; read-out: Cell growth inhibition IC50-values [μM] Hep G2
Method: Nicotinamide Reversibility Assay
Hep G2 cells derived from a human liver carcinoma were plated at a density of 20,000 cells/ml in 12-well plastic dishes. Cultivation occurred in Richters IMEM-ZO nutrient medium with 5% fetal calf serum (FCS) in a tissue culture incubator with a gas mixture of 5% CO2 and 95% air at a temperature of 37° C. One day after plating, the culture medium was aspirated from the cells and replaced by fresh medium which contained the respective concentrations of the test compounds and where applicable of the nicotinamide. For the individual concentrations and the controls without test compounds, three-fold batches were done for each. Three days after the beginning of treatment, the medium was again renewed with the test compounds and where applicable the nicotinamide. After six days of compound incubation, the test was ended and the protein amount in the individual wells was determined with the sulforhodamin-B-method (according. to P. Skehan et al.: New Colorimetric Cytotoxicity Assay for Anticancer-Drug Screening. J. Natl. Cancer Inst. 82: 1107-1112, 1990). The IC50-values were taken from the dose-response curves and given as a comparative measurement for the activity of the test compounds.

T1 sequence (P43490 whole entry): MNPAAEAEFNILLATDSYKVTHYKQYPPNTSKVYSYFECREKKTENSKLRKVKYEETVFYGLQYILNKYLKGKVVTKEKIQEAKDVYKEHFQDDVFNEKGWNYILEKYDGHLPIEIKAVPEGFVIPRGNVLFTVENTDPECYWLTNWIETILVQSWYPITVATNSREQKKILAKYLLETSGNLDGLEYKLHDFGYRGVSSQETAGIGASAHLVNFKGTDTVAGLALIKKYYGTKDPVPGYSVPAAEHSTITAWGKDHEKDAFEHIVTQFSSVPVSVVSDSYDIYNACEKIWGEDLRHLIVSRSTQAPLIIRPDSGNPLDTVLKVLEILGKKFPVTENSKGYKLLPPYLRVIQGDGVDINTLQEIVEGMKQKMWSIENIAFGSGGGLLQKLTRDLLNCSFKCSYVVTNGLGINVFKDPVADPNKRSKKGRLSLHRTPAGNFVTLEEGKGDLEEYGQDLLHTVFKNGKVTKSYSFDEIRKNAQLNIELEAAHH

- NAM ([1]; niacinamide mononucleotide formed, controls 79.1 and 71.8): 0.0 pmol/h
- NA ([1]; niacinamide remaining, controls 389.7 and 397.0): 468.8 pmol/h
- NAM [%] ([1]; portion of total radioactivity, controls 16.88 and 15.32): 0.00%
- NA [%] ([1]; portion of total radioactivity, controls 83.12 and 84.68): 100.00%
Compound: O=C(CCc1cccnc1)NCCCCC1CCN(CCCCC2CCN(C(c3ccccc3)c3ccccc3)CC2)CC1 [Compound K22316, N-(4-(1-[4-{1-benzhydryl-piperidine-4-yl)-butyl]-piperidine-4-yl}-butyl)-3-pyridine-3-yl-propanoic acid amide]
- minimal effective concentration (HepG2 cells; Table 5): 1 µM
- minimal effective concentration (HepG2 cells; minimum concentration which, despite initial growth, induced cell death below the number of initially seeded cells, Table 2): 1 µM
- IC50 (Hep G2 cells): 0.9 µM

Source: US20020160968A1, “Inhibitors of cellular niacinamide mononucleotide formation and their use in cancer therapy” (Klinge Pharma GmbH, priority 1999, published 2002)
